Laboratory results reported in PubChem BioAssay (NCI).
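Following 48 hours of exposure in 96-well plates, responses at five concentrations were used to interpolate endpoints linearly. GI50 = concentration required for 50% inhibition of growth. TGI is the concentration that stops growth completely.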

Assays:
Assay in all cases: inhibition of tumour cell growth, NCI panel, 48 h
[1] = tested on: SNB-19 CNS
[2] = tested on: SNB-78 CNS
[3] = tested on: TK-10 renal
[4] = tested on: EKVX NSCLC
[5] = tested on: KM12 colon
[6] = tested on: UACC-257 melanoma
[7] = tested on: NCI-H226 lung
[8] = tested on: HL-60(TB) leukemia
[9] = tested on: OVCAR-8 ovarian
[10] = tested on: SR leukemia
[11] = tested on: UO-31 renal
[12] = tested on: NCI-H460 lung
[13] = tested on: SF-295 CNS
[14] = tested on: SK-OV-3 ovarian
[15] = tested on: HCT-116 colon
[16] = tested on: DMS 273 small cell lung
[17] = tested on: OVCAR-5 ovarian
[18] = tested on: RXF-631 renal
[19] = tested on: SK-MEL-28 melanoma
[20] = tested on: ACHN renal
[21] = tested on: HT29 colon
[22] = tested on: HOP-92 NSCLC
[23] = tested on: NCI-H522 lung
[24] = tested on: HOP-62 NSCLC
[25] = tested on: A498 renal
[26] = tested on: SF-268 CNS
[27] = tested on: NCI-H23 lung
[28] = tested on: M14 melanoma
[29] = tested on: IGROV1 ovarian
[30] = tested on: CCRF-CEM leukemia
[31] = tested on: M19-MEL melanoma
[32] = tested on: DMS 114 small cell lung
[33] = tested on: A549 NSCLC
[34] = tested on: MOLT-4 leukemia
[35] = tested on: KM20L2 colon
[36] = tested on: U251 CNS
[37] = tested on: RXF 393 renal
[38] = tested on: SK-MEL-2 melanoma
[39] = tested on: SN12C renal
[40] = tested on: OVCAR-4 ovarian
[41] = tested on: HCC-2998 colon
[42] = tested on: K-562 leukemia
[43] = tested on: UACC-62 melanoma
[44] = tested on: OVCAR-3 ovarian
[45] = tested on: DLD-1 colon
[46] = tested on: SNB-75 CNS
[47] = tested on: CAKI-1 renal
[48] = tested on: XF 498 CNS
[49] = tested on: SK-MEL-5 melanoma
[50] = tested on: COLO 205 colon
[51] = tested on: MALME-3M melanoma
[52] = tested on: LOX IMVI melanoma
[53] = tested on: HCT-15 colon
[54] = tested on: SF-539 CNS
[55] = tested on: LXFL 529 NSCLC
[56] = tested on: 786-0 renal
[57] = tested on: SW-620 colon
[58] = tested on: RPMI-8226 leukemia
[59] = tested on: HOP-18 NSCLC

`O=P(O)(O)C1CCCC(P(=O)(O)O)N1` (centres undefined) was tested, and the TGI [1] was over 100 µM, the TGI [2] was over 100 µM and the TGI [3] was over 100 µM. For the same molecule, the TGI [4] was over 100 µM, the TGI [5] was over 100 µM and the TGI [6] was over 100 µM. It also gave a TGI [7] of over 100 µM, a TGI [8] of over 100 µM and a TGI [9] of over 100 µM. The TGI [10] was over 100 µM, the TGI [11] was over 100 µM and the TGI [12] was over 100 µM. The TGI [13] was over 100 µM, the TGI [14] was over 100 µM and the TGI [15] was over 100 µM. It also gave a TGI [16] of over 100 µM, a TGI [17] of over 100 µM and a TGI [18] of over 100 µM. For the same molecule, the TGI [19] was over 100 µM, the TGI [20] was over 100 µM and the TGI [21] was over 100 µM. For the same molecule, the TGI [22] was over 100 µM, the TGI [23] was over 100 µM and the TGI [24] was over 100 µM. For the same molecule, the TGI [25] was over 100 µM, the TGI [26] was over 100 µM and the TGI [27] was over 100 µM. It also gave a TGI [28] of over 100 µM, a TGI [29] of over 100 µM and a TGI [30] of over 100 µM. It also gave a TGI [31] of over 100 µM, a TGI [32] of over 100 µM and a TGI [33] of over 100 µM. The TGI [34] was over 100 µM, the TGI [35] was over 100 µM and the TGI [36] was over 100 µM. It also gave a TGI [37] of over 100 µM.
With `CCC[CH2][Ge]([CH2]CCC)([CH2]CCC)[O]C(=O)C(OC)c1ccccc1` (centres undefined) the GI50 [1] was over 93.9 µM, the TGI [1] was over 100 µM and the GI50 [38] was 42.4 µM. The TGI [38] was over 100 µM, the GI50 [39] was 46.4 µM and the TGI [39] was over 100 µM. The GI50 [40] was 15.3 µM, the TGI [40] was over 100 µM and the GI50 [2] was over 100 µM. The TGI [2] was over 100 µM, the GI50 [3] was over 91.9 µM and the TGI [3] was over 100 µM. For the same molecule, the GI50 [4] was 16.4 µM, the TGI [4] was over 100 µM and the GI50 [5] was 26.4 µM. It also gave a TGI [5] of over 100 µM, a GI50 [6] of 16.7 µM and a TGI [6] of over 100 µM. The GI50 [41] was 23.2 µM, the TGI [41] was 59 µM and the GI50 [7] was 92.7 µM. It also gave a TGI [7] of over 100 µM, a GI50 [8] of 2.96 µM and a TGI [8] of over 26.1 µM. For the same molecule, the GI50 [9] was 70.2 µM, the TGI [9] was over 100 µM and the TGI [10] was over 55.4 µM. The GI50 [11] was over 41.7 µM, the TGI [11] was over 100 µM and the GI50 [42] was 2.07 µM. The TGI [42] was over 100 µM, the GI50 [12] was 22.1 µM and the TGI [12] was over 100 µM. The GI50 [43] was 30.7 µM, the TGI [43] was over 100 µM and the GI50 [44] was 11.1 µM. The TGI [44] was over 70.2 µM, the GI50 [13] was 18.3 µM and the TGI [13] was over 100 µM. For the same molecule, the GI50 [14] was over 94.2 µM, the TGI [14] was over 100 µM and the GI50 [15] was 16.5 µM. For the same molecule, the TGI [15] was over 100 µM, the GI50 [16] was 17.6 µM and the TGI [16] was over 75.9 µM. For the same molecule, the GI50 [45] was 23.7 µM, the TGI [45] was over 100 µM and the GI50 [17] was 31.5 µM. The TGI [17] was over 78.3 µM, the GI50 [46] was 41.1 µM and the TGI [46] was over 100 µM. The GI50 [47] was 70.1 µM, the TGI [47] was over 100 µM and the GI50 [18] was 29.4 µM. For the same molecule, the TGI [18] was over 100 µM, the GI50 [19] was 52.3 µM and the TGI [19] was over 100 µM. It also gave a GI50 [20] of 25.2 µM, a TGI [20] of over 75.2 µM and a GI50 [48] of 41.1 µM. The TGI [48] was over 100 µM, the GI50 [21] was 25.4 µM and the TGI [21] was over 100 µM. The GI50 [22] was 9.53 µM, the TGI [22] was 98.3 µM and the GI50 [23] was 16.3 µM. The TGI [23] was over 74.9 µM, the GI50 [24] was 20.6 µM and the TGI [24] was over 70.6 µM. For the same molecule, the GI50 [49] was 17.5 µM, the TGI [49] was over 63.1 µM and the GI50 [25] was 46.8 µM. For the same molecule, the TGI [25] was over 100 µM, the GI50 [26] was 40.9 µM and the TGI [26] was over 100 µM. The GI50 [50] was 45.8 µM, the TGI [50] was over 100 µM and the GI50 [51] was 26.7 µM. For the same molecule, the TGI [51] was over 100 µM, the GI50 [27] was 6.86 µM and the TGI [27] was 51.8 µM. It also gave a GI50 [28] of 16.7 µM, a TGI [28] of 49.8 µM and a GI50 [52] of 14.3 µM. For the same molecule, the TGI [52] was 35.1 µM, the GI50 [29] was over 74.7 µM and the TGI [29] was over 100 µM. The GI50 [53] was 9.52 µM, the TGI [53] was 32.4 µM and the GI50 [54] was 32.1 µM. The TGI [54] was over 100 µM, the GI50 [30] was 2.09 µM and the TGI [30] was over 100 µM. It also gave a GI50 [55] of 15.6 µM, a TGI [55] of over 100 µM and a GI50 [31] of 33.9 µM. It also gave a TGI [31] of over 100 µM, a GI50 [56] of 47.2 µM and a TGI [56] of over 100 µM. For the same molecule, the GI50 [32] was 7.56 µM, the TGI [32] was 34.4 µM and the GI50 [33] was over 36.9 µM. For the same molecule, the TGI [33] was over 100 µM, the GI50 [34] was 3.74 µM and the TGI [34] was over 60.6 µM. The GI50 [57] was 47.3 µM, the TGI [57] was over 100 µM and the GI50 [35] was 17.2 µM. It also gave a TGI [35] of over 100 µM, a GI50 [58] of 0.255 µM and a TGI [58] of 14.6 µM. The GI50 [36] was 31.4 µM, the TGI [36] was over 100 µM and the GI50 [37] was 6.9 µM. For the same molecule, the TGI [37] was 27.8 µM, the GI50 [59] was over 100 µM and the TGI [59] was over 100 µM.
